US8847018B2, “Plants tolerant to HPPD inhibitor herbicides” (Bayer CropScience AG, priority 2009, dated 2014)
Several values for one entry are separate records, joined by “and”; a condition that tells them apart may be missing. Identical values can stand only once.

Tests used:
[1] = system: rice plants containing FMP23e; assay: Response to tembotrione in glasshouse trials, T0 rice; type: in vivo; details: 100 g AI/ha, 7 DAT
Description: (§1) T0 rooted plantlets (either selected on phosphinothricin alone or on phosphinothricin supplemented with tembotrione) were transferred to soil in the glasshouse. Following an acclimation period, sufficiently grown plants were treated with the different HPPD inhibitor herbicides. As an example, T0 plants were sprayed with tembotrione of formulation type WP20 100 g Al/ha supplemented with ammonium sulfate and methyl ester raps oil. Seven days after the spray application, the symptoms due to the application of the herbicide were evaluated and compared the symptoms observed on wild type plants submitted to the same treatment.
(§2) The plants were classified in three categories based on the phenotype developed in response to the herbicide seven days after the treatment.

[2] = system: rice plants containing FMP22e; assay: as above; type: in vivo; details: 100 g AI/ha, 7 DAT
Description: as §1, §2

[3] = system: tobacco plants containing FMP23e (HPPD FMP23); assay: Glasshouse trial, herbicidal damage on T1 tobacco; type: in vivo, Nicotiana tabacum; details: 7 DAT, 100 g AI/ha spray; FMP23e line 188, single T1 plants
Description: T0 Tobacco plants containing either the gene from Arabidopsis coding for HPPD or the gene FMP22e from Rhodococcus sp. (strain RHA1), isolate ro03041 coding for FMP22 HPPD, or the gene FMP23e from Rhodococcus sp. (strain RHA1), isolate ro02040 mentioned above (Example 3), were transferred to the glasshouse (28/20° C.), to develop further and produce seeds. Those seeds were harvested and put on soil (ED73 mixed with sand and osmocote Pro) to germinate in the glasshouse (28/20° C.). Three to four weeks later, plantlets were transferred to single pots containing the soil mentioned above. Two weeks later, plants of a size 4-6 cm diameter were sprayed with either • tembotrione at 100 gAl/ha prepared from a WP20 (wettable powder 20%) formulation supplemented with ammonium sulfate and methyl ester raps oil, or • isoxaflutole at 100 gAl/ha prepared from a WP20 formulation supplemented with ammonium sulfate and methyl ester raps oil, or • bicyclopyrone at 100 gAl/ha prepared from a WP20 formulation supplemented with ammonium sulfate and methyl ester raps oil, or • “blind formulation” made from a WP20 formulation without active ingredient (Al) supplemented with ammonium sulfate and methyl ester raps oil, and were then transferred to a growth chamber with adequate light conditions (20000 Lux).

[4] = target: T1, Arabidopsis thaliana HPPD SEQ ID No. 10 (Arabidopsis thaliana, UniProt P93836); assay: HPLC assay of HPPD in vitro kinetic properties
T1 sequence (P93836 with tags, fused parts or gaps): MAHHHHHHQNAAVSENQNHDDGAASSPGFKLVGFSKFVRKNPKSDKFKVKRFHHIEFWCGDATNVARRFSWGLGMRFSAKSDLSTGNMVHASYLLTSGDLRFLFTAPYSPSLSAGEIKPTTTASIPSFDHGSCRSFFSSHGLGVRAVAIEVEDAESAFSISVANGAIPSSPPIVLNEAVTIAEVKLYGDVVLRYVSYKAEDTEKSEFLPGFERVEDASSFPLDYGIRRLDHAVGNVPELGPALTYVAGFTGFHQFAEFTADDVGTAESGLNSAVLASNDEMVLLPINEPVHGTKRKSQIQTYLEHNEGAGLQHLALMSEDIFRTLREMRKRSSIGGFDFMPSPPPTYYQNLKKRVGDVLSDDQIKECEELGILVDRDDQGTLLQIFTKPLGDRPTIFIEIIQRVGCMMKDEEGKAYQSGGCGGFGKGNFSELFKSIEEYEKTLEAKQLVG
Description: All assays were started by the addition of HPPD enzyme to the assay mixture and stopped at a series of times between 0 and 240 s by addition of 200 μl of the reaction mixture to reaction assay tubes containing 20 μl 10% perchloric acid. Precipitated protein was pelleted by a 5 minute centrifugation at 10,000 g. […] For Km and Vmax value determinations the initial rates of the HPPD reaction at different substrate concentrations were determined from plots of HGA formed versus time and fitted to the Michaelis-Menten equation for unireactant enzymes using the ID Business Solutions Ltd. (idbs.com) XLfit software suite.

[5] = system: Rhodococcus HPPD SEQ ID No. 19 (FMP23e); assay: biochemical; type: biochemical, Rhodococcus sp. (strain RHA1), isolate ro02040; details: SEQ ID No. 19
[6] = system: T0 tobacco plants containing FMP23t; assay: Response of T0 tobacco plants to tembotrione; type: in vivo, Nicotiana tabacum; details: 100 g AI/ha, two weeks after treatment
Description: (§3) As an example, rooted plants containing the T-DNA PromCaMV35S-OTP-HIS6-FMP22t-TerCaMV35S or containing the T-DNA PromCaMV35S-OTP-HIS6-FMP23t-TerCaMV35S, are transferred to the greenhouse under standard growth conditions. Following a period of acclimation of two weeks, the T0 plants are treated with a mixture containing 100 g tembotrione/ha prepared from a WP20 (wettable powder 20%) formulation supplemented with ammonium sulfate and methyl ester raps oil.
(§4) Two weeks after the treatment, the symptoms due to the application of the herbicides are evaluated. The plants are classified in four categories. The treated plants evaluated as “0” are looking like the untreated tobacco plants. The plants evaluated as “1” display temporarily light bleaching phenotype due to the application of the herbicides. The plants evaluated as “2” display permanent light to strong bleaching symptoms. Finally the plants evalutated as “3” are looking like wild type tobacco plants submitted to the same treatment.

[7] = system: T0 tobacco plants containing FMP22t; assay: Response of T0 tobacco plants to tembotrione; type: in vivo, Nicotiana tabacum; details: 100 g AI/ha, two weeks after treatment
Description: as §3, §4

[8] = system: rice shoots containing FMP22e; assay: Bleaching of rice shoots on MS/2 with tembotrione; type: cell-based; details: 2 weeks
Description: (§5) Rice transformation is achieved using methods well known in the art. Briefly, the Agrobacterium tumefaciens mediated transformation of rice was performed using immature embryos, from the restorer line 6G4317. Briefly, panicles from donor plants were harvested 8-12 days after pollination. The lemma of the immature seed was removed. Seeds were thereafter sterilized using a NaOCl based solution and Tween. The seeds were preinduced with […]. Agrobacterium tumefaciens cells are then co-cultivated with the preinduced seeds in presence of acetosyringone for 4 days at 24° C. in the dark. Thereafter, coleoptile from embryos are removed and washed, then put on a media supplemented with phosphinothricin for 3 weeks at 28° C. under a photoperiod rhythm of 16 hours. Then the growing calli were cut off from the embryos, and transferred to fresh media containing triacillin, phosphinothricin, L-proline and copper (II) sulfate.
(§6) For each callusline and per Tembotrione concentration, 3 shoots, and randomly isolated from different callus pieces, were transferred to MS/2 with Tembotrione. As a general rule, transfer of the shoots from regeneration medium to MS/2 occurred 9 weeks after calli had been put on regeneration medium.
(§7) Cultures were incubated at 26.5° C. (16 hrs. photoperiod) and evaluation of symptoms occurred 2 weeks later.
(§8) New developing leaves of the shoots transferred have been scored on the basis of bleaching and categorized in 3 groups:
(§9) Within the category ‘intermediate bleaching’ a distinction has been made between shoots having new leaves showing only very little bleaching symptoms and thus tending to green leaves, and shoots with new leaves almost completely bleached.

[9] = system: rice shoots containing FMP23e; assay: Bleaching of rice shoots on MS/2 with tembotrione; type: cell-based; details: 2 weeks
Description: as §5, §6, §7, §8, §9

In the case of `CS(=O)(=O)c1ccc(C(=O)C2C(=O)CCCC2=O)c(Cl)c1COCC(F)(F)F` [Tembotrione, 2-[2-chloro-4-(methylsulfonyl)-3-[(2,2,2,-tri-fluoroethoxy)methyl]benzoyl]-1,3-cyclo-hexanedione], the “Class II (number of plants, temporary light injuries, injury: 10-40%)” value [1] is reported as 10, the “Class III (number of plants, strong injuries, injury: 41-100%)” value [1] is reported as 7 and the “Class II (number of plants, temporary light injuries, injury: 10-40%)” value [2] is reported as 19. For the same compound, the “% injury” value [3] was 0% and 5%, the Ki [4] was 15 nM and the pI50 ([5]; 2 mM HPP, 3 minutes incubation) was 5.1. For the same compound, the “percentage of inhibition compared to activity in absence of the inhibitor” value ([5]; 5.0 × 10^−6 M inhibitor) was 70%, the “number of plants in category 0 (looking like untreated tobacco plants)” value [6] was 5 and the “number of plants in category 3 (like treated wild type tobacco plants)” value [6] was 4. The “number of plants in category 0 (looking like untreated tobacco plants)” value [7] was 4, the “number of plants in category 1 (temporarily light bleaching)” value [7] was 2 and the “number of plants in category 2 (permanent light to strong bleaching)” value [7] was 5. For the same compound, the “number of plants in category 3 (like treated wild type tobacco plants)” value [7] was 3, the “N° of shoots completely bleached” value ([8]; 1 μM) was 14 and the “N° of shoots with intermediate bleaching” value ([8]; 1 μM) was 9. The “N° of shoots without bleaching” value ([8]; 1 μM) was 35, the “N° of shoots completely bleached” value ([8]; 5 μM) was 16 and the “N° of shoots with intermediate bleaching” value ([8]; 5 μM) was 38. The “N° of shoots without bleaching” value ([8]; 5 μM) was 6, the “N° of shoots completely bleached” value ([9]; 1 μM) was 14 and the “N° of shoots with intermediate bleaching” value ([9]; 1 μM) was 5. For the same compound, the “N° of shoots without bleaching” value ([9]; 1 μM) was 39, the “N° of shoots completely bleached” value ([9]; 5 μM) was 25 and the “N° of shoots with intermediate bleaching” value ([9]; 5 μM) was 20.
